# Results published in patent US12544375B2, “Small molecule therapeutic for parkinson's disease paired with a biomarker of therapeutic activity” (The Board of Trustees of the Leland Stanford Junior …, priority 2019, dated 2026).
# Experiments:
# Mitofusin (Marf) = assay: Flies fed compound, Mitofusin (Marf) Western blot; assay type: in vivo, fruit flies; conditions: wild-type flies fed 250 μM for 7 days
# Procedure: FIG. 2A-FIG. 2F. Miro1 Reducer Eliminates the Miro1 Defect in PD Fibroblasts. (FIG. 2A) Chemical properties of Miro1 Reducer. (FIG. 2B) Wild-type flies (w^1118) were fed with DMSO alone (0 μM Miro1 Reducer) or Miro1 Reducer in DMSO at 250 μM for 7 days, and lysed and blotted as indicated. The band intensities are normalized to those of Tubulin from the same blots. n=4. (FIG. 2C-FIG. 2E) Fibroblasts were treated, lysed, and blotted as indicated. (FIG. 2C) Band intensities are normalized to those of GAPDH from the same blots and compared to “Healthy-1, no treatment” except otherwise indicated. n=4. (FIG. 2D) Band intensities are normalized to those of ATP5β from the same blots and expressed as a percentage of the mean of “0 μM Miro1 Reducer with CCCP”. Mean±S.E.M is shown. n=3. (FIG. 2E) Band intensities are normalized to those of GAPDH from the same blots and compared to “Healthy-1, no CCCP, no MG132” except otherwise indicated. n=4. […] The Miro1 intensity is normalized to that of mito-dsRed from the same cell and quantified across 37-62 cells from 5 fields each transfection, 3 independent transfections. […]
# We assessed the binding ability of 6,835,320 commercialized small molecules to one of the two atypical Rho GTPase domains of Miro1 (amino acids 411-592) (FIG. 6C) by a customized virtual screen using the artificial intelligence (AI) technology. […]
# [1] = test system: LRRK2^G2019S, PINK1 null and SNCA^A53T flies; assay: Dopaminergic neuron number in fly PD models (anti-TH); assay type: in vivo; conditions: 2.5 μM in food, all three PD models
# Procedure: FIG. 4A-FIG. 4I. Miro1 Reducer Rescues PD-Relevant Phenotypes in Flies. For all panels, when Miro1 Reducer was not added, the same volume of the solvent, DMSO, was supplied in fly food. Drug administration (2.5 μM) was started from day 2. (FIG. 4A-FIG. 4C) Survival curves of LRRK2^G2019S (FIG. 4A), PINK1^B9 (imprecise excision, null) and PINK1^RV (the precise excision control for PINK1^B9) (FIG. 4B), and SNCA^A53T flies (FIG. 4C). n=58-150. (FIG. 4D) Dopaminergic (DA) neurons in the PPM1/2 clusters of 22-day old flies were immunostained with anti-TH. (FIG. 4D-FIG. 4F) Quantification of the DA neuron number in the PPL1 or PPM1/2 cluster (total number divided by 2 for each brain). (FIG. 4D) LRRK2^G2019S. n=6-8 brains. (FIG. 4E) PINK1^B9 (“−”) and PINK1^RV (“+”). n=9-16. (FIG. 4F) SNCA^A53T. n=9-11. […]
# Immunocytochemistry and Confocal Microscopy. PI (P4170, Sigma) at 2.5 μg/ml or 4′, 6-Diamidino-2-phenylindole (Dapi-D9542, Sigma) at 0.5 μg/ml was applied in culture media at room temperature in the dark for 10 min, MitoSox (M36008, Invitrogen) at 2 μM was applied in culture media at 37° C. for 10 min, or TMRM (T668, Molecular Probes) at 25 nM was applied in culture media at 37° C. for 30 min, and cells were washed with HBSS and imaged immediately in a 35-mm petridish containing the Hibernate E low-fluorescence medium with a 63×/N.A.0.9 water-immersion objective. […]
compound,measurement,setting,value
O=C(Nc1ccc(Nc2cc(-n3ccnc3)ncn2)cc1)Nc1cccc(F)c1 [Miro1 Reducer],effect on OMM GTPase Mitofusin (Marf),Mitofusin (Marf),did not significantly affect
same,age-dependent dopaminergic neuronal loss,[1],significantly rescued
